The target of one assay is T1, 5-lipoxygenase (Rattus norvegicus, UniProt P12527).
T1 construct: The supernatant was used as the enzyme solution of 5-lipoxygenase; from tissue; host or cells: peritoneal polymorphonuclear leukocytes (PMNL) of glycogen-injected Wistar-King rats, homogenate supernatant
T1 sequence (P12527 1-673): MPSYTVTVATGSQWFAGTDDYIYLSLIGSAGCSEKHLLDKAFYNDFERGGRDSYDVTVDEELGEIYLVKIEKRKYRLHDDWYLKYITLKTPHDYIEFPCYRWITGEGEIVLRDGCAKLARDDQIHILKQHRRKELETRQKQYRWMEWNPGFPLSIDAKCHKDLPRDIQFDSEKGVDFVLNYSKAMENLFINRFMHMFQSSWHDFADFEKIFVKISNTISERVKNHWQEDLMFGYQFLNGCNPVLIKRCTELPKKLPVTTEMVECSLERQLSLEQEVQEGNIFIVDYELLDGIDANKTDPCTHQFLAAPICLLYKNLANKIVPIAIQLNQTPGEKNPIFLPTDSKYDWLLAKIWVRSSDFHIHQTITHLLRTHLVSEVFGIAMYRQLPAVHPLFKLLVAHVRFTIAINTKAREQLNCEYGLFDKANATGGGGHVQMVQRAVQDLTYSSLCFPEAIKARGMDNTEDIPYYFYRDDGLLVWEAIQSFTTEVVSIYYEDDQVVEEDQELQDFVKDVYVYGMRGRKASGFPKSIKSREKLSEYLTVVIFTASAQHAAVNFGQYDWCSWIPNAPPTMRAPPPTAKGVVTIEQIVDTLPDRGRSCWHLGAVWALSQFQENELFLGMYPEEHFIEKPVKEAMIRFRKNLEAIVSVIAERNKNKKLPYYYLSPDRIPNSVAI
Put plainly: Test of 5-Lipoxygenase Inhibitory Activity (rat PMNL enzyme, radiolabelled arachidonic acid, TLC). It is filed as biochemical, Wistar-King rats. The method, then:
(1) Formation of Enzyme Solution of 5-Lipoxygenase
Peritoneal polymorphonuclear leukocytes (PMNL) were prepared from normal Wistar-King rats (150-400 g) injected intraperitoneally with 5% (w/v) glycogen (20 mL/kg). A suspension in potassium phosphate buffer (50 mM, pH 7.4) was homogenized and centrifuged. The supernatant was used as the enzyme solution of 5-lipoxygenase.
(2) Measurement of Inhibitory Activity Against 5-Lipoxygenase
0.02 mL Of enzyme solution (2 mg protein/mL) and [1l-^14 C] arachidonic acid ([…]) were incubated with each testing solution (0.02 mL) and Ca^2+ and ATP at 37° C. for 5 min.
After incubation at 37° C. for 5 min, the reaction was terminated by adding 0.2 mL of 0.5 N formic acid, and the metabolite was extracted by 3 mL of ethyl acetate.
Then the extracted solution was subjected to thin-layer chromatography (TLC) and developed with ether/petroleum ether/acetic acid (50:50:1, v/v) at 4° C. The radioactive metabolites generated by 5-lipoxygenase were detected and quantified using autoradiography. The inhibitory activity on 5-lipoxygenase was measured and expressed as a percentage of the control.

The test system of another assay is lipoxygenase. The experiment in a line: Inhibition of lipoxygenase enzyme activity (general statement). The format is biochemical. Particulars: enzyme not given.
Assay [1] has as its system oxazolone-induced inflammation in the ears of mice. Particulars: skin, 1.0 mg/ear; already reported data; cited from earlier work.
The test system of assay [2] is TPA-induced inflammation to the ears of mice. The following applies: skin, 0.5 mg/ear; already reported data; cited from earlier work.
Assay [3] has the same test system. The experiment in a line: Regulating inflammatory reaction against TPA-induced inflammation to the ears of mice, application to the skin. The format is in vivo, mice (ICR). Particulars: for Regulating Coefficient: TPA 0.8 μg/20 μl/ear, after 4 hours. The method, then:
(§1) (1) Application to the Skin
Test solutions for Embodiment 1, 3 and 4 were prepared and applied to the right ears of mice (ICR, 5 weeks old, Clair) by adding acetone solution of TPA (0.8 μg/20 μl/ear).

For assay [4], the system named is oxazolone-induced inflammation in the ears of mice. Put plainly: Allergy control test against oxazolone-induced inflammation in the ears of mice, application to the skin. The format is in vivo, mice (I.C.R). The method, then: As described in this section, an allergy control test of oxazolone-induced inflammation to the ears of mice was conducted.
as §1
Oxazolone solution in ethanol (500 μg/100 μl) was applied to the abdominal region of mice (I.C.R, 5 weeks old, Clair), that had been shaved by hair clippers under an anesthetic of Nembutal (Immunization).
After 5 days of immunization, oxazolone solution in acetone, containing a prescribed amount of the sample being tested (Embodiment 1), was applied to the right ears of the mice (Challenge).
Also, as a comparison, data on NDGA (Comparison 7), ketoprophen (Comparison 8), phenidone (Comparison 9) and mepiramine (Comparison 10) which had already been reported, were listed in Table 3.

The test system of another assay is 12-lipoxygenase. Put plainly: Test of 12-Lipoxygenase Inhibitory Activity (rat platelet enzyme, radiolabelled arachidonic acid, TLC). It is filed as biochemical, Wistar-King rats. How it is done:
A test of the substances' effectiveness as inhibitors of the enzyme activity of 12-lipoxygenase was conducted for Embodiment 1 to 4.
(1) Formation of Enzyme Solution of 12-Lipoxygenase
Blood was collected from normal Wistar-King rats (150-400 g) and 0.5 mM of EDTA was added as anti-coagulant. The centrifuged supernatant (1,200 rpm for 10 min.) was again centrifuged at 3,000 rpm for 10 min. The deposited platelets were washed by 25 mM Tris/HCl buffer (pH 7.4) 1 mM EDTA /130 mM NaCl. The suspension of platelets in 1 mM EDTA was homogenized and used as an enzyme solution of 12-lipoxygenase.
(2) Measurement of Inhibitory Activity of 12-Lipoxygenase
Four to six testing solutions with different levels of concentration were prepared for Embodiment 1 to 4. 0.13 mL of enzyme solution (2 mg protein/mL) and [1-^14 C] arachidonic acid ([…]) were incubated with a testing solution (0.02 mL) at 37° C. for 5 min.
After incubation at 37° C. for 5 min., the reaction was terminated by adding 0.2 mL of 0.5 N formic acid, and the metabolite was extracted by adding 3 mL of ethyl acetate. […] The radioactive metabolites of 12 lipoxygenase were detected and quantified using autoradiography. The inhibitory activity of 12-lipoxygenase was measured and expressed as a percentage of the control.

Entries after “also recorded” stand apart in the source; their conditions may differ. Where two headings read alike, the source gives them in different places.

As a reminder, the IC50 is the concentration at which inhibition is half-maximal. Lower therefore signals greater potency in that assay. Consider `O=C(/C=C/c1ccc(O)c(O)c1)O[C@H](Cc1ccc(O)c(O)c1)C(=O)O` [Comparison 1, rosemarinic acid, reference compound], for which it took 6.2 µM to reach half-maximal inhibition on 5-lipoxygenase (IC50). Besides, the “Inhibition of lipoxygenase enzyme activity (in words)” value (“Inhibition” below) in the assay on lipoxygenase was “strongly inhibit lipoxygenase enzyme activity”.

Regarding `COC(=O)[C@@H](Cc1ccc(O)c(O)c1)OC(=O)/C=C/c1ccc(O)c(O)c1` [Comparison 2, rosemarinic acid methyl ester, reference compound], on 5-lipoxygenase (rat PMNL enzyme, 37° C., 5 min), the IC50 stood at 0.6 µM. Moreover, in the assay with lipoxygenase, the “Inhibition” value is recorded as “strongly inhibit lipoxygenase enzyme activity”.

Regarding `O=C(O)/C=C/c1ccc(O)c(O)c1` [Comparison 5, caffeic acid, reference compound], at 5-lipoxygenase, the IC50 came to 72 µM.

With `CC(Cc1ccc(O)c(O)c1)C(C)Cc1ccc(O)c(O)c1` (stereo not shown) [Comparison 7, NDGA], the “Regulating Coefficient” value in assay [1] is given as 38%; in assay [2] it was 40%.

For `CC(C(=O)O)c1cccc(C(=O)c2ccccc2)c1` (stereo not shown) [Comparison 8, ketoprophen], the “Regulating Coefficient” value in assay [1] is 32%.

Turning to `O=C1CCN(c2ccccc2)N1` [Comparison 9, phenidone], the “Regulating Coefficient” value in assay [1] is 44%.

For the compound `COc1ccc(CN(CCN(C)C)c2ccccn2)cc1` [Comparison 10, mepiramine], the “Regulating Coefficient” value in assay [1] is 38%.

For `O=c1cc(-c2ccc(O)c(O)c2)oc2cc(O)cc(O)c12` [Embodiment 1, luteolin], the “Inhibitory activity against 5-lipoxygenase (in words)” value at 5-lipoxygenase (in words) was “significant 5-LO inhibitory activity; also recorded: stronger inhibitory activity than that of Comparison 1 (rosemarinic acid) and Comparison 2 (rosemarinic acid methyl ester)”. On 5-lipoxygenase (rat PMNL enzyme, 37° C., 5 min), this compound came in with an IC50 of 0.1 µM. For the same compound, the “Regulating Coefficient” value in assay [3] (0.15 mg/ear) was found to be 85%; in assay [3] (0.3 mg/ear) it was 100%; in assay [4] (0.3 mg/ear, 48 hours after challenge), 52%. In addition, the “Regulating effect against inflammation (in words)” value in assay [3] (in words) is given as “significant regulating effect against inflammation; also recorded: anti-inflammatory action, which correlated with the concentration of luteolin”. Besides, the “Anti-allergic action (in words)” value in assay [4] is on record as “higher regulating coefficient for a smaller amount of application against Comparisons 7 to 10”; in assay [4] (listed as luteolin) it was “significant anti-allergic action”. Also, the “Inhibition” value in the assay with lipoxygenase was “strongly inhibit lipoxygenase enzyme activity; also recorded: outstanding inhibitory activity”. Also, in the assay with 12-lipoxygenase, the “Inhibitory activity against 12-lipoxygenase (in words)” value is “very strong inhibitory activity, similar to that against 5-lipoxygenase”.

In the case of `COc1cc(-c2cc(=O)c3c(O)cc(O)cc3o2)ccc1O` [Embodiment 2, chrysoeriol], the “Inhibition” value with lipoxygenase is given as “strongly inhibit lipoxygenase enzyme activity; also recorded: lesser inhibitory activity”.

For the compound `O=c1cc(-c2ccc(O)cc2)oc2cc(O)cc(O)c12` [apigenin], the “Inhibition” value in the assay with lipoxygenase is on record as “strongly inhibit lipoxygenase enzyme activity”.

The record behind these values is patent US6217875A, “Inhibitors of lipoxygenase” (priority 1997, dated 2001).
